Tested on: dinitrofluorobenzene-induced ear edema
Experiment: Suppressive action on dinitrofluorobenzene-induced ear edema reaction in mouse
Type: in vivo, BALB/c mice (printed BALE/c)
Settings: topical, test compound 1% (w/v) in acetone applied to front and back of auricle 1 hr before and 3 hr after induction, auricle thickness 24 hr after induction, female mice, read-out: ear edema suppressive rate (%)
Description: 5-Week to 6-week old BALE/c mice (female, supplied by CHARLES RIVER LABORATORIES JAPAN, INC) were purchased and, after quarantine and habituation, those showing satisfactory body weight increase and free of abnormal appearance were used to start the test from 7 weeks of age. The animals were housed and bred in plastic cages (6 mice per cage) in a breeding chamber set at room temperature 19-25° C., humidity 30-70%, 12 hr illumination per day (7 a.m.-7 p.m.), with free access to a commercially available solid feed and water.
One day before the test, the abdomen was shaved, and a solution of dinitrofluorobenzene (manufactured by Nacalai Tesque) in acetone (manufactured by Wako Pure Chemical Industries, Ltd.) {concentration 0.5% [weight (w)/volume (v) %]} was applied to the shaved part of BALE/c mice by 100 μL for sensitization. On day 5 after sensitization, a dinitrofluorobenzene-acetone solution [concentration 0.2% (w/v %)] was applied to the front and the back of the auricle by 10 μL each (total 20 μL) to induce reaction. A test compound dissolved in acetone to the concentration of 1% (w/v %) was applied to the front and the back of the auricle 1 hr before and 3 hr after the induction of reaction each by 10 μL or 40 μL (total 20 μL or 80 μL). After the application, the applied part was air-dried by a dryer.
A group administered with the test compound by coating was taken as a test compound administration group, and a group administered with acetone (solvent) by coating instead of the test compound was taken as a solvent administration group. In addition, a group free of sensitization and induction of reaction and administered with acetone by coating instead of the test compound was taken as a normal group. The thickness of the auricle was measured immediately before induction of reaction and 24 hr after the induction with a dial thickness gauge (manufactured by OZAKI MFG. CO., LTD., G-1A), and the difference between them was taken as ear edema. The ear edema suppressive rate (%) was calculated according to the following formula.

CS(=O)(=O)NC(=O)c1cnn2c(NCc3ccccc3)c(C(=O)N3CCC(c4ccccc4)CC3)cnc12 [a-1, N-[7-Benzylamino-6-(4-phenylpiperidine-1-carbonyl)pyrazolo[1,5-a]pyrimidine-3-carbonyl]methanesulfonamide]
inhibition in vivo at 1 %: 20%

CCS(=O)(=O)NC(=O)c1cnn2c(Nc3ccc(F)cc3C)c(C(=O)N3CCC(c4ccccc4)CC3)cnc12 [a-57, N-[7-(4-Fluoro-2-methylphenylamino)-6-(4-phenylpiperidine-1-carbonyl)pyrazolo[1,5-a]pyrimidine-3-carbonyl]ethanesulfonamide]
inhibition in vivo at 1 %: 35%

CCS(=O)(=O)NC(=O)c1cnn2c(Nc3cc(C)ccc3F)c(C(=O)N3CCC(c4ccccc4)CC3)cnc12 [a-59, N-[7-(2-Fluoro-5-methylphenylamino)-6-(4-phenylpiperidine-1-carbonyl)pyrazolo[1,5-a]pyrimidine-3-carbonyl]ethanesulfonamide]
inhibition in vivo at 1 %: 6%

CCS(=O)(=O)NC(=O)c1cnn2c(Nc3cc(C)ccc3F)c(C(=O)N3CCC(c4ccc(F)cc4)CC3)cnc12 [a-81, N-{7-(2-Fluoro-5-methylphenylamino)-6-[4-(4-fluorophenyl)piperidine-1-carbonyl]pyrazolo[1,5-a]pyrimidine-3-carbonyl}ethanesulfonamide]
inhibition in vivo at 1 %: 25%

CCS(=O)(=O)NC(=O)c1cnn2c(Nc3ccc(F)cc3C)c(C(=O)N3CCC(c4ccc(F)cc4)CC3)cnc12 [a-84, N-{7-(4-Fluoro-2-methylphenylamino)-6-[4-(4-fluorophenyl)piperidine-1-carbonyl]pyrazolo[1,5-a]pyrimidine-3-carbonyl}ethanesulfonamide]
inhibition in vivo at 1 %: 25%

CS(=O)(=O)NC(=O)c1cnn2c(NCc3ccccc3)c(C(=O)N3CCC(F)(c4ccccc4)CC3)cnc12 [a-96, N-[7-Benzylamino-6-(4-fluoro-4-phenylpiperidine-1-carbonyl)pyrazolo[1,5-a]pyrimidine-3-carbonyl]methanesulfonamide]
inhibition in vivo at 1 %: 10%

O=C(NS(=O)(=O)C1CC1)c1cnn2c(NCc3ccccc3)c(C(=O)N3CCC4(CC3)COc3ccccc34)cnc12 [a-126, N-[7-Benzylamino-6-(2H-spiro[benzofuran-3,4′-piperidine]-1′-ylcarbonyl)pyrazolo[1,5-a]pyrimidine-3-carbonyl]cyclopropanesulfonamide]
inhibition in vivo at 1 %: 10%

CCS(=O)(=O)NC(=O)c1cnn2c(Nc3cc(C)ccc3C)c(C(=O)N3CCC4(CC3)COc3cc(F)ccc34)cnc12 [a-137, N-[7-(2,5-Dimethylphenylamino)-6-(6-fluoro-2H-spiro[benzofuran-3,4′-piperidine]-1′-ylcarbonyl)pyrazolo[1,5-a]pyrimidine-3-carbonyl]ethanesulfonamide]
inhibition in vivo at 1 %: 5%
